Experimental data: US12440484B2, “1,3,4-oxadiazole homophthalimide derivative compounds as histone deacetylase 6 inhibitor, and the pharmaceutical composition comprising the same” (Chong Kun Dang Pharmaceutical Corp., priority 2019, dated 2025)

Tests used:
HDAC6 human recombinant = HDAC6 human recombinant (Homo sapiens (Human), UniProt Q9UBN7); assay: HDAC enzyme activity inhibition (in vitro), HDAC6 assay; assay type: biochemical; details: samples at 0.1, 1, 10, 100 and 1000 nM; 37° C. 60 minutes; fluorescence Ex 390, Em 460
HDAC1 = HDAC1 (Homo sapiens (Human), UniProt Q13547); assay: HDAC enzyme activity inhibition (in vitro), HDAC1 Fluorimetric Drug Discovery Assay Kit; assay type: biochemical; details: samples at 100, 1000 and 10000 nM; 37° C. 60 minutes; fluorescence Ex 390, Em 460
Chain of HDAC1 (Q13547 whole entry): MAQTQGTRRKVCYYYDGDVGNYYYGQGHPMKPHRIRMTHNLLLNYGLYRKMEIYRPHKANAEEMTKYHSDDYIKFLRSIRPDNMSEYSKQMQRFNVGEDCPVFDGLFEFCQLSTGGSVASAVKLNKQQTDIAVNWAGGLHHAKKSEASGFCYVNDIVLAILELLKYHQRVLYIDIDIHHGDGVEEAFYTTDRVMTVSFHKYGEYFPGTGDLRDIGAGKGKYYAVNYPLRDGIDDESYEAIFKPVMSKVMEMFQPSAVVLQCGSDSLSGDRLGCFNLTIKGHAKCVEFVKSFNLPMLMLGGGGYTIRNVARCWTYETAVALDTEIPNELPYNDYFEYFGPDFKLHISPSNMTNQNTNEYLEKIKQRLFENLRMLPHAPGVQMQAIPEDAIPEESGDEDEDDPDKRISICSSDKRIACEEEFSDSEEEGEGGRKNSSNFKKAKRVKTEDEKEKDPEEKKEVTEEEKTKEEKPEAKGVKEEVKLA

Chain of HDAC6 human recombinant (Q9UBN7 whole entry): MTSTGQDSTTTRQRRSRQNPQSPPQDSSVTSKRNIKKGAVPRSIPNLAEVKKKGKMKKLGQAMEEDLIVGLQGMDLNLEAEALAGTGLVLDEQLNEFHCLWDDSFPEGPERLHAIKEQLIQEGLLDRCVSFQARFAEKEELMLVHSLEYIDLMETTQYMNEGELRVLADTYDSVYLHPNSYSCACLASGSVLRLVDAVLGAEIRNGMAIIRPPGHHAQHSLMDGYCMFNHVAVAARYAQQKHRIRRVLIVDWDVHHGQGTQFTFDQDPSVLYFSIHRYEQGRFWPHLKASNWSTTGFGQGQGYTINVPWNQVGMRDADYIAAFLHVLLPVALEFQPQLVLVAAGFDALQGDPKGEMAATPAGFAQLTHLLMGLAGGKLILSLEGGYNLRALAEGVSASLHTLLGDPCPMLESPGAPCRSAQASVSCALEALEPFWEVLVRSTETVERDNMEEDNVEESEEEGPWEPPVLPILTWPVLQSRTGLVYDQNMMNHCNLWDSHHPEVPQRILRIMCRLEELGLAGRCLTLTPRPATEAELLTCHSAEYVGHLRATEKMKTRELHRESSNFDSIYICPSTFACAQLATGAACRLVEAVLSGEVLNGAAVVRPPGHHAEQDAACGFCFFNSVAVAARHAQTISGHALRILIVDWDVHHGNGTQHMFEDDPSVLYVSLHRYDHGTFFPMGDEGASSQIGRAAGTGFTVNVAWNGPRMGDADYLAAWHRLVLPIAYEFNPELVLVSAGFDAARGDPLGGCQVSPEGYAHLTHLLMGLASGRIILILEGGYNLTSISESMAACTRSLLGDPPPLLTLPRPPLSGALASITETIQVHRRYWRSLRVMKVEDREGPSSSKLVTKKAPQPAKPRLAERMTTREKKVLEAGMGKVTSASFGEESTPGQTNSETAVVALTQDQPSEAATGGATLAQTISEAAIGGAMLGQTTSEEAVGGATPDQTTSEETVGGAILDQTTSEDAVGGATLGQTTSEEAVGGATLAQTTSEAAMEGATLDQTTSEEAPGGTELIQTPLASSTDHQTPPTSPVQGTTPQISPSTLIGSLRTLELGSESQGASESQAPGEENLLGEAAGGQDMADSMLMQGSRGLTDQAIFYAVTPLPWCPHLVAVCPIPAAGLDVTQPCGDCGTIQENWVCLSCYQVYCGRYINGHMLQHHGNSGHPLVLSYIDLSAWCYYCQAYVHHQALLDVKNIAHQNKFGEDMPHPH

SMILES | IC50 (HDAC6 human recombinant) [nM] | IC50 (HDAC1) [nM]
CC(C)N1CCN(c2ccc3c(c2)C(C)(C)C(=O)N(Cc2ccc(-c4nnc(C(F)F)o4)cn2)C3=O)CC1 [Compound 26, 2-((5-(5-(difluoromethyl)-1,3,4-oxadiazole-2-yl)pyridine-2-yl)methyl)-6-(4-isopropylpiperazine-1-yl)-4,4-dimethylisoquinoline-1,3(2H,4H)-dione] | 22 | > 10000
CC1(C)C(=O)N(Cc2ccc(-c3nnc(C(F)F)o3)cn2)C(=O)c2ccc(-c3cccnc3)cc21 [Compound 104, 2-((5-(5-(difluoromethyl)-1,3,4-oxadiazole-2-yl)pyridine-2-yl)methyl)-4,4-dimethyl-6-(pyridine-3-yl)isoquinoline-1,3(2H,4H)-dione] | 20 | > 10000
Cn1c(=O)n(Cc2ccc(-c3nnc(C(F)F)o3)cn2)c(=O)c2ccc(C3=CCNCC3)cc21 [Compound 122, 3-((5-(5-(difluoromethyl)-1,3,4-oxadiazole-2-yl)pyridine-2-yl)methyl)-1-methyl-7-(1,2,3,6-tetrahydropyridine-4-yl)quinazoline-2,4(1H,3H)-dione] | 23 | > 10000
O=C1c2ccccc2C2(CCC2)C(=O)N1Cc1ccc(-c2nnc(C(F)F)o2)cc1 [Compound 5, 2′-(4-(5-(difluoromethyl)-1,3,4-oxadiazole-2-yl)benzyl)-1′H-spiro[cyclobutane-1,4′-isoquinoline]-1′,3′(2′H)-dione] | 513 | > 10000
CN1CCN(c2ccc3c(c2)C(=O)N(Cc2ccc(-c4nnc(C(F)F)o4)cn2)C(=O)C3(C)C)CC1 [Compound 118, 2-((5-(5-(difluoromethyl)-1,3,4-oxadiazole-2-yl)pyridine-2-yl)methyl)-4,4-dimethyl-7-(4-methylpiperazine-1-yl)isoquinoline-1,3(2H,4H)-dione] | 22 | > 10000
CN1CC=C(c2ccc3c(c2)C(C)(C)C(=O)N(Cc2ccc(-c4nnc(C(F)F)o4)cn2)C3=O)CC1 [Compound 42, 2-((5-(5-(difluoromethyl)-1,3,4-oxadiazole-2-yl)pyridine-2-yl)methyl)-4,4-dimethyl-6-(1-methyl-1,2,3,6-tetrahydropyridine-4-yl)isoquinoline-1,3(2H,4H)-dione] | 35 | > 10000
CC1(C)C(=O)N(Cc2ccc(-c3nnc(C(F)F)o3)cn2)C(=O)c2ccc(N3CCN(C4COC4)CC3)cc21 [Compound 30, 2-((5-(5-(difluoromethyl)-1,3,4-oxadiazole-2-yl)pyridine-2-yl)methyl)-4,4-dimethyl-6-(4-(oxetan-3-yl)piperazine-1-yl)isoquinoline-1,3(2H,4H)-dione] | 46 | > 10000
CCN1CCN(c2ccc3c(c2)C(=O)N(Cc2ccc(-c4nnc(C(F)F)o4)cn2)C(=O)C3(C)C)CC1 [Compound 129, 2-((5-(5-(difluoromethyl)-1,3,4-oxadiazole-2-yl)pyridine-2-yl)methyl)-7-(4-ethylpiperazine-1-yl)-4,4-dimethylisoquinoline-1,3(2H,4H)-dione] | 26 | > 10000
CC(C)(C)OC(=O)N1CCN(c2ccc3c(c2)C(=O)N(Cc2ccc(-c4nnc(C(F)F)o4)cn2)C(=O)C3(C)C)CC1 [Compound 116, tert-butyl 4-(2-((5-(5-(difluoromethyl)-1,3,4-oxadiazole-2-yl)pyridine-2-yl)methyl)-4,4-dimethyl-1,3-dioxo-1,2,3,4-tetrahydroisoquinoline-7-yl)piperazine-1-carboxylate] | 200 | > 10000
CC1(C)C(=O)N(Cc2ccc(-c3nnc(C(F)F)o3)cn2)C(=O)c2cc(C3CCN(C4CCC4)CC3)ccc21 [Compound 145, 7-(1-cyclobutylpiperidine-4-yl)-2-((5-(5-(difluoromethyl)-1,3,4-oxadiazole-2-yl)pyridine-2-yl)methyl)-4,4-dimethylisoquinoline-1,3(2H,4H)-dione] | 37 | > 10000
COCCN1CCN(c2ccc3c(c2)C(C)(C)C(=O)N(Cc2ccc(-c4nnc(C(F)F)o4)cn2)C3=O)CC1 [Compound 35, 2-((5-(5-(difluoromethyl)-1,3,4-oxadiazole-2-yl)pyridine-2-yl)methyl)-6-(4-(2-methoxyethyl)piperazine-1-yl)-4,4-dimethylisoquinoline-1,3(2H,4H)-dione] | 26 | > 10000
CN(C)C(=O)C1CCN(c2ccc3c(c2)C(C)(C)C(=O)N(Cc2ccc(-c4nnc(C(F)F)o4)cn2)C3=O)CC1 [Compound 57, 1-(2-((5-(5-(difluoromethyl)-1,3,4-oxadiazole-2-yl)pyridine-2-yl)methyl)-4,4-dimethyl-1,3-dioxo-1,2,3,4-tetrahydroisoquinoline-6-yl)-N,N-dimethylpiperidine-4-carboxamide] | 32 | > 10000

Now from value to compound:

IC50 (HDAC6 human recombinant) [nM] | IC50 (HDAC1) [nM] | SMILES
30 | > 10000 | CC1(C)C(=O)N(Cc2ccc(-c3nnc(C(F)F)o3)cn2)C(=O)c2ccc(-c3ccoc3)cc21 [Compound 102, 2-((5-(5-(difluoromethyl)-1,3,4-oxadiazole-2-yl)pyridine-2-yl)methyl)-6-(furan-3-yl)-4,4-dimethylisoquinoline-1,3(2H,4H)-dione]
98 | > 10000 | CN1CCC(Cn2c(=O)n(Cc3ccc(-c4nnc(C(F)F)o4)cn3)c(=O)c3cc(F)ccc32)CC1 [Compound 73, 3-((5-(5-(difluoromethyl)-1,3,4-oxadiazole-2-yl)pyridine-2-yl)methyl)-6-fluoro-1-((1-methylpiperidine-4-yl)methyl)quinazoline-2,4(1H,3H)-dione]
40 | > 10000 | O=c1c2ccccc2n(Cc2ccc(-c3nnc(C(F)F)o3)cn2)c(=O)n1Cc1ccc(-c2nnc(C(F)F)o2)cn1 [Compound 78, 1,3-bis((5-(5-(difluoromethyl)-1,3,4-oxadiazole-2-yl)pyridine-2-yl)methyl)quinazoline-2,4(1H,3H)-dione]
107 | > 10000 | CC1(C)C(=O)N(Cc2ccc(-c3nnc(C(F)F)o3)cn2)C(=O)c2cc(-c3ccccc3F)ccc21 [Compound 109, 2-((5-(5-(difluoromethyl)-1,3,4-oxadiazole-2-yl)pyridine-2-yl)methyl)-7-(2-fluorophenyl)-4,4-dimethylisoquinoline-1,3(2H,4H)-dione]
149 | > 10000 | Cn1c(=O)n(Cc2ccc(-c3nnc(C(F)F)o3)cn2)c(=O)c2ccc(-c3ccccc3F)cc21 [Compound 99, 3-((5-(5-(difluoromethyl)-1,3,4-oxadiazole-2-yl)pyridine-2-yl)methyl)-7-(2-fluorophenyl)-1-methylquinazoline-2,4(1H,3H)-dione]
59 | > 10000 | CC1(C)C(=O)N(Cc2ccc(-c3nnc(C(F)F)o3)cn2)C(=O)c2c(-c3ccoc3)cccc21 [Compound 95, 2-((5-(5-(difluoromethyl)-1,3,4-oxadiazole-2-yl)pyridine-2-yl)methyl)-8-(furan-3-yl)-4,4-dimethylisoquinoline-1,3(2H,4H)-dione]
33 | > 10000 | Cn1c(=O)n(Cc2ccc(-c3nnc(C(F)F)o3)cn2)c(=O)c2ccc(-c3ccncc3)cc21 [Compound 101, 3-((5-(5-(difluoromethyl)-1,3,4-oxadiazole-2-yl)pyridine-2-yl)methyl)-1-methyl-7-(pyridine-4-yl)quinazoline-2,4(1H,3H)-dione]
47 | > 10000 | Cn1c(=O)n(Cc2ccc(-c3nnc(C(F)F)o3)cn2)c(=O)c2ccc(-c3ccco3)cc21 [Compound 98, 3-((5-(5-(difluoromethyl)-1,3,4-oxadiazole-2-yl)pyridine-2-yl)methyl)-7-(furan-2-yl)-1-methylquinazoline-2,4(1H,3H)-dione]
54 | > 10000 | Cn1c(=O)n(Cc2ccc(-c3nnc(C(F)F)o3)cn2)c(=O)c2cc(-c3ccccc3F)ccc21 [Compound 89, 3-((5-(5-(difluoromethyl)-1,3,4-oxadiazole-2-yl)pyridine-2-yl)methyl)-6-(2-fluorophenyl)-1-methylquinazoline-2,4(1H,3H)-dione]
